Read-outs that look alike come from different tables or passages of the source. Residues, ends and D or L forms follow the SMILES beside them.
What was measured:
[1] = target: T1, PC-3 cells (gastrin-releasing peptide receptor) (Homo sapiens, UniProt P30550); assay: Blocking of 125I-Bombesin binding to PC-3 cells; conditions: 56 to 0.44 nM
T1 construct: 3×10^6 PC-3 cells were exposed to a constant amount (˜50,000 cpms) of ^125I-Bombesin; endogenous in cells; host or cells: PC-3 cells
Method: A NOTA-conjugated bombesin derivative (IMP468) was prepared as described above. […] Our initial experiment was to determine if IMP468 could specifically block bombesin from binding to PC-3 cells. We used IMP333 as a non-specific control. […] A range of 56 to 0.44 nM was used as our inhibitory concentrations.
This experiment was repeated using a commercially available BBN peptide.

in vivo = conditions: male, nude BALB/c, mouse, iv, 200 pmol, total radioactivity, uptake in PC-3 tumors
Method: (§1) 2-3 weeks after inoculation, when tumor size averaged 200 mm^3, mice were injected intravenously with 5-10 MBq of radiolabeled peptide (200 pmol, 200 μL). To determine the receptor-mediated localization of the radiolabeled peptides, additional animals were co-injected with an excess (20 nmol) of unlabeled peptide. Mice were euthanized 1 h or 2 h post injection (p.i.) by CO2/O2 asphyxiation. Mice were first scanned in prone position on a small animal PET/CT scanner (Inveon; Siemens Preclinical Solutions). PET emission scans were acquired for 30-60 min, followed by a CT scan (spatial resolution 113.15 μm; 80 kV; and 500 μA). Scans were reconstructed using Inveon Acquisition Workplace software (version 1.5; Siemens Preclinical Solutions), using a 3-dimensional ordered-subset expectation maximization/maximization a posteriori algorithm with the following parameters: matrix, 256×256×161; pixel size, 0.40×0.40×0.796 mm; and β-value, 1.5, with uniform variance and FastMAP. After scanning, blood, tumor, and relevant organs and tissues were collected, weighed and counted in a γ-counter. The percentage injected dose per gram (% ID/g) was determined for each tissue sample.
(§2) Statistical analysis was performed using GraphPad Prism version 5.01 (San Diego, Calif., USA). […] Statistical analysis on biodistribution data was performed using a 1-way ANOVA with a Bonferroni post-hoc test, and the level of significance was set at P less than 0.05.

[2] = test system: GRPR-positive PC-3 tumors; conditions: mouse, in vivo
Method: as §1, §2

[3] = test system: GRPR-positive PC-3 tumors; assay: Small-animal PET/CT and biodistribution in mice bearing s.c. PC-3 xenografts; conditions: for tumor uptake after co-injection of excess unlabeled peptide (GRPR-specificity): co-injection of 100-fold excess of unlabeled JMV4168 or JMV5132
Method: as §1, §2

[4] = Octanol/water partition coefficient; type: physicochemical; conditions: pH 7.4, octanol / PBS pH 7.4, n=3; read-out: log P octanol/water
Method: Octanol/Water Partition Coefficient The radiolabeled peptide (1 MBq) was diluted in 500 μL phosphate-buffered saline (pH 7.4) and mixed vigorously with 500 μL octanol for 2 min using a vortex mixer. The two layers were separated by centrifugation (1000 rpm, 5 min).

[5] = Small-animal PET/CT and biodistribution in mice bearing s.c. PC-3 xenografts; conditions: male, nude BALB/c, mouse, iv, 200 pmol, total radioactivity, 200 pmol
Method: as §1, §2

[6] = male, nude BALB/c, iv, 200 pmol, 2 h

T1 sequence (P30550 whole entry): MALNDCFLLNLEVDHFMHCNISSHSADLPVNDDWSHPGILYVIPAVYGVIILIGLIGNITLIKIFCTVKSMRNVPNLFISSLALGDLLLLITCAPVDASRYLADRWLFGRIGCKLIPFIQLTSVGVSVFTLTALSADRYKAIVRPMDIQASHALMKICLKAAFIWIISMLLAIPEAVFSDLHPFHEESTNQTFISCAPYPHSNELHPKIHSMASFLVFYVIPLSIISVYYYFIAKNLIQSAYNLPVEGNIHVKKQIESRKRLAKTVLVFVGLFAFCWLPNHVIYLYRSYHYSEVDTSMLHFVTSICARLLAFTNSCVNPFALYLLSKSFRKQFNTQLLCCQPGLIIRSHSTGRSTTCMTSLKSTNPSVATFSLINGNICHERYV

CSCC[C@H](NC(=O)[C@H](CC(C)C)NC(=O)[C@H](Cc1c[nH]cn1)NC(=O)CNC(=O)[C@@H](NC(=O)[C@H](C)NC(=O)[C@H](Cc1c[nH]c2ccccc12)NC(=O)[C@@H](NC(=O)[C@H](Cc1c[nH]c2ccccc12)NC(=O)[C@H](CCC(N)=O)NC(=O)CCCCCCCNC(=O)CN1CCN(CC(=O)O)CCN(CC(=O)O)CC1)C(C)C)C(C)C)C(N)=O [IMP468] (HELM PEPTIDE1{[O=C(O)CN1CCN(CC(=O)O)CCN(CC(=O)[*:2])CC1].[O=C(CCCCCCCN[*:1])[*:2]].Q.W.V.W.A.V.G.H.L.M.[am]}$$$$V2.0)
block the binding of 125I-BBN [1]: could block

CC(C)C[C@H](NC(=O)C[C@H](O)[C@H](CC(C)C)NC(=O)[C@H](Cc1c[nH]cn1)NC(=O)CNC(=O)[C@@H](NC(=O)[C@H](C)NC(=O)[C@H](Cc1c[nH]c2ccccc12)NC(=O)[C@H](CCC(N)=O)NC(=O)[C@@H](Cc1ccccc1)NC(=O)CCNC(=O)CCNC(=O)Cc1ccc(CN2CCN(CC(=O)O)CCN(CC(=O)O)CC2)cc1)C(C)C)C(N)=O [^68Ga-JMV5132, metal not drawn]
tissue uptake at 2 h (in vivo): 5.24 ± 0.29 %ID/g | remaining in blood [2, 6]: 0.19±0.13 % ID/g | clearance / excretion route [2]: partially hepatobiliary | tumor uptake after co-injection of excess unlabeled peptide (GRPR-specificity) [3]: significantly reduced

CC(C)C[C@H](NC(=O)C[C@H](O)[C@H](CC(C)C)NC(=O)[C@H](Cc1c[nH]cn1)NC(=O)CNC(=O)[C@@H](NC(=O)[C@H](C)NC(=O)[C@H](Cc1c[nH]c2ccccc12)NC(=O)[C@H](CCC(N)=O)NC(=O)[C@@H](Cc1ccccc1)NC(=O)CCNC(=O)CCNC(=O)CN1CCN(CC(=O)O)CCN(CC(=O)O)CCN(CC(=O)O)CC1)C(C)C)C(N)=O [^68Ga-JMV4168, metal not drawn]
logP [4]: -2.53 ± 0.04 | pancreas uptake decreased by a factor ([3]; from 1 h to 2 h p.i.): 6.1 | clearance / excretion route ([3]; mice with s.c. PC-3 xenografts): exclusively via the kidney | tissue uptake at 2 h ([5]; PC-3 tumor, uptake in PC-3 tumors, 2 h after injection, i.v.): 5.96 ± 1.39 %ID/g | tissue uptake at 2 h ([5]; blood, remaining in blood, 2 h p.i.): 0.09 ± 0.04 %ID/g

CC(C)C[C@H](NC(=O)C[C@H](O)[C@H](CC(C)C)NC(=O)[C@H](Cc1c[nH]cn1)NC(=O)CNC(=O)[C@@H](NC(=O)[C@H](C)NC(=O)[C@H](Cc1c[nH]c2ccccc12)NC(=O)[C@H](CCC(N)=O)NC(=O)[C@@H](Cc1ccccc1)NC(=O)CCNC(=O)CCNC(=O)Cc1ccc(CN2CCN(CC(=O)O)CCN(CC(=O)O)CC2)cc1)C(C)C)C(N)=O [Al^18F-JMV5132]
remaining in blood [2, 6]: 0.05±0.01 % ID/g | uptake in PC-3 tumors [2, 6]: 5.30±0.98 % ID/g | tumor uptake after co-injection of excess unlabeled peptide (GRPR-specificity) [3]: significantly reduced
